Experimental data: US11510906B1, “Diazacyclobutene derivatives as anti-parasitic drug substances” (Clemson University, priority 2019, dated 2022)

Test system: Trypanosoma brucei brucei bloodstream form (BSF) parasites (cell line 90-13, a 427 strain)
Assay: Parasite viability assay (CellTiter Blue), bloodstream form African trypanosomes
Type: cell-based
Details: for % BSF Growth Inhibition @ 10 μM: 10 μM compound, 48 hours; for EC50: 48 hours at 37° C., averages of triplicates
Protocol: To determine the impact of diazacyclobutene derivatives on the growth of African trypanosomes (Trypanosoma brucei brucei) as a representative parasite, bloodstream form (BSF) parasites (cell line 90-13, a 427 strain at 1×10^5 cell/mL) were seeded into 384-well black plates in 40 μL HMI-9 supplemented with 10% fetal bovine serum and 10% Serum Plus (Sigma-Aldrich, St. Louis Mo.) in the presence of compound or equivalently diluted carrier. After 48 hours at 37° C. in 5% CO2, CellTiter Blue (8 μL, Promega, Madison Wis.) was added and the plates incubated an additional 3 hours. Fluorescence emission at A585 was then measured after excitation at A546 on a Synergy H1 Hybrid Reader (Biotek, Winooski Vt.). Averages of triplicates were calculated and fit to dose-response curves using Prism (Graphpad, San Diego Calif.) for the determination of EC50 values.

| EC50 [µM] | Structure (SMILES) | % BSF Growth Inhibition @ 10 μM [%] |
| --- | --- | --- |
| > 10 | CSc1c(-c2ccccc2)n2c(=O)n(-c3ccccc3)c(=O)n12 [Compound 1] | 35.6 ± 1.9 |
| > 10 | CCSc1c(-c2ccccc2)n2c(=O)n(-c3ccccc3)c(=O)n12 [Compound 2] | 23.4 ± 5.7 |
| > 5 | CCCCSc1c(-c2ccccc2)n2c(=O)n(-c3ccccc3)c(=O)n12 [Compound 4] | 80.5 ± 2.1 |
| 2.65 ± 0.16 | CCCCCSc1c(-c2ccccc2)n2c(=O)n(-c3ccccc3)c(=O)n12 [Compound 5] | 98.21 ± 0.17 |
| 2.04 ± 0.21 | CCCCCCCCSc1c(-c2ccccc2)n2c(=O)n(-c3ccccc3)c(=O)n12 [Compound 6] | 94.71 ± 3.48 |
| 0.386 ± 0.034 | O=c1n(-c2ccccc2)c(=O)n2c(-c3ccccc3)c(SCc3ccccc3)n12 [Compound 7] | 98.87 ± 2.68 |
| > 10 | O=c1n(-c2ccccc2)c(=O)n2c(-c3ccccc3)c(Sc3ccccc3)n12 [Compound 8] | 11.5 ± 7 |
| > 10 | CSc1c(-c2ccc(C)cc2)n2c(=O)n(-c3ccccc3)c(=O)n12 [Compound 9] | – |
| 3.66 ± 1.7 | CCSc1c(-c2ccc(C)cc2)n2c(=O)n(-c3ccccc3)c(=O)n12 [Compound 10] | 95.2 ± 3.5 |
| > 5 | COc1ccc(-c2c(SC)n3c(=O)n(-c4ccccc4)c(=O)n23)cc1 [Compound 11] | 77.1 ± 3.5 |
| > 5 | CSc1c(-c2ccc(Cl)cc2)n2c(=O)n(-c3ccccc3)c(=O)n12 [Compound 12] | 62.2 ± 2.7 |
| > 2.5 | CSc1c(-c2ccc(C(F)(F)F)cc2)n2c(=O)n(-c3ccccc3)c(=O)n12 [Compound 13] | 89.6 ± 2.8 |
| 0.35 ± 0.04 | CCCCc1c(SC)n2c(=O)n(-c3ccccc3)c(=O)n12 [Compound 14] | 95.6 ± 1.2 |
| – | CCCCSc1c(CCCC)n2c(=O)n(-c3ccccc3)c(=O)n12 [Compound 15] | 59.2 ± 6.6 |
| – | O=c1n(-c2ccccc2)c(=O)n2c(-c3ccccc3)c([Se]c3ccccc3)n12 [Compound 18] | 84.24 ± 8.21 |
| > 10 | Cc1ccc(S(=O)(=O)N(C)c2c(-c3ccccc3)n3c(=O)n(-c4ccccc4)c(=O)n23)cc1 [Compound 21] | 2.5 ± 4.3 |
| > 10 | Cc1ccc(S(=O)(=O)N(C)c2c(-c3ccc(C(F)(F)F)cc3)n3c(=O)n(-c4ccccc4)c(=O)n23)cc1 [Compound 22] | 0 |
| 7.08 ± 1.9 | CSc1c(-c2ccccc2)n2c(=O)n(-c3cccc(Cl)c3)c(=O)n12 [Compound 23] | – |
| > 10 | COc1cccc(-n2c(=O)n3c(SC)c(-c4ccccc4)n3c2=O)c1 [Compound 25] | – |

| Structure (SMILES) | EC50 [µM] | % BSF Growth Inhibition @ 10 μM [%] |
| --- | --- | --- |
| CCCSc1c(-c2ccccc2)n2c(=O)n(-c3ccccc3)c(=O)n12 [Compound 3] | 5.83 ± 2.2 | 96.6 ± 0.3 |
| C[Se]c1c(-c2ccccc2)n2c(=O)n(-c3ccccc3)c(=O)n12 [Compound 17] | > 10 | 46.1 ± 6.2 |
